Laboratory results as given in patent US11111214B2 (priority 2013, dated 2021).

Assays:
in vitro [1] = conditions: human, hepatocytes
[2] = not given; remark: listed apart in the source
in vitro [3] = conditions: rat, hepatocytes
[4] = molecular target: T1, KOR (kappa opioid receptor) (Homo sapiens, UniProt P41145); assay: cell-based
T1 construct: expressed in transfected cells; host or cells: CHO-K1 cells stably expressing KOR

[5] = molecular target: T2, recombinant human mu (MOR) opioid receptor (Homo sapiens, UniProt P35372); assay: biochemical; format: binding; conditions: for inhibition at 10 µM: read-out: Mu receptor % inhibition at single concentration, % inhibition @ 10 μM
T2 construct: expressed in transfected cells; host or cells: CHO-K1 cell membranes

[6] = molecular target: T3, recombinant human kappa (KOR) opioid receptor (Homo sapiens, UniProt P41145); assay: biochemical; format: binding
T3 construct: expressed in transfected cells; host or cells: CHO-K1 cell membranes
T3 sequence (P41145 whole entry): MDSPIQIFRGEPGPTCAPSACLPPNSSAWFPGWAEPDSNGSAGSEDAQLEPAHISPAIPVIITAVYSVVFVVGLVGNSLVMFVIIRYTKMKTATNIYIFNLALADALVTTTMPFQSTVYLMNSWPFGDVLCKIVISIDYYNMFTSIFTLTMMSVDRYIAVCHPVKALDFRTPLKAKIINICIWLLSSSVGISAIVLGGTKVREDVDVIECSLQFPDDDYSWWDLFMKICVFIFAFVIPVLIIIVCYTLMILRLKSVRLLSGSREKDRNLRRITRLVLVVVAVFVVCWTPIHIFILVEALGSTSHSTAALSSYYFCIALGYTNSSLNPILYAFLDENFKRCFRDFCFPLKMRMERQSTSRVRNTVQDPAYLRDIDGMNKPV

T1 sequence (P41145 whole entry): as above
T2 sequence (P35372 whole entry): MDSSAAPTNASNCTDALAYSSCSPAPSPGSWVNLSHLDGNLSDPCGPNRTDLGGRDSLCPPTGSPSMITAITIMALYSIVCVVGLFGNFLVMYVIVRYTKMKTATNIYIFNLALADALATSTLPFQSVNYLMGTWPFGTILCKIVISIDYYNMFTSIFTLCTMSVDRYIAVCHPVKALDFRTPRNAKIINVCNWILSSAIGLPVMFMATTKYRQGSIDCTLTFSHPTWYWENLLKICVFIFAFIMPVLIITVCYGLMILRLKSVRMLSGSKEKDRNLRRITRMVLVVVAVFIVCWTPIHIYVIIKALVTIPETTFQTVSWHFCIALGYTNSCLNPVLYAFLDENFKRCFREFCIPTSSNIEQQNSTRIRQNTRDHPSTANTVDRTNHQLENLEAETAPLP

| SMILES | In vitro Hepatocyte Clearance, Rat % hep Blood flow [%] | CLhep predicted (in vitro [1]) [mL/min/kg] | In vitro Hepatocyte Clearance, Human % hep Blood flow [2] [%] | CLhep predicted (in vitro [3]) [mL/min/kg] | EC50 [4] [nM] | IC50 [5] [nM] | inhibition at 10 µM [5] [%] | IC50 [6] [nM] | Ki [6] [nM] |
| --- | --- | --- | --- | --- | --- | --- | --- | --- | --- |
| CN(C(=O)C(c1ccccc1)c1ccccc1)[C@H](CN1CC[C@H](O)C1)c1ccccc1 [Asimadoline, asimadoline, reference compound] | 85.0 | 18.2 | 79.0 | 51 |  |  |  |  |  |
| CN(C(=O)Cc1ccc(Cl)c(Cl)c1)[C@H](CN1CCCC1)c1ccccc1 [ICI-199,441, reference compound] | 73.0 | 19.7 | 85.0 | 44 |  |  |  |  |  |
| COCCOCCOCCO[C@H]1CCN(C[C@H](c2ccccc2)N(C)C(=O)Cc2ccc(Cl)c(Cl)c2)C1.Cl [compound 4, 2-(3,4-Dichlorophenyl)-N-{(1S)-2-[(3S)-3-(2-(2-(2-methoxyethoxy)ethoxy]ethoxy)pyrrolidin-1-yl)-1-phenylethyl}-N-methylacetamide] | 82 | 19.4 | 84 | 49 | 0.42 | 20400 | 82 | 8.9 | 2.1 |
| COCCOCCOCCNC(=O)O[C@H]1CCN(C[C@H](c2ccccc2)N(C)C(=O)Cc2ccc(Cl)c(Cl)c2)C1.Cl [compound 5, (3S)-1-[(2S)-2-{[(3,4-Dichlorophenyl)acetyl](methyl)amino}-2-phenylethyl]pyrrolidin-3-yl {2-[2-(2-methoxyethoxy)ethoxy]ethyl}carbamate] | 82 | 20.4 | 88 | 49.1 | 75.7 |  | 35.6 | 1190 | 275 |
| COCCOCCOCCOCCOCCNC(=O)O[C@H]1CCN(C[C@H](c2ccccc2)N(C)C(=O)Cc2ccc(Cl)c(Cl)c2)C1.Cl [compound 6, (3S)-1-[(2S)-2-{[(3,4-Dichlorophenyl)acetyl](methyl)amino}-2-phenylethyl]pyrrolidin-3-yl 2,5,8,11,14-pentaoxahexadecan-16-ylcarbamate] | 81 | 20.1 | 86 | 48.8 | 56 | 31200 | 20.6 | 1100 | 255 |
| CCN(CCOC)C[C@H](c1ccccc1)N(C)C(=O)Cc1ccc(Cl)c(Cl)c1.Cl [compound 10, 2-(3,4-Dichlorophenyl)-N-{(1S)-2-[ethyl(2-methoxyethyl)amino]-1-phenylethyl}-N-methylacetamide] | 83 | 20.6 | 89 | 49.7 | 3.1 |  | 82.8 | 82.7 | 19.1 |
| CN(C(=O)Cc1ccc(Cl)c(Cl)c1)[C@H](CN1CCCC1)c1cccc(NS(=O)(=O)CCOCC(F)(F)F)c1.Cl [compound 19, 2-(3,4-dichlorophenyl)-N-methyl-N-{(1S)-2-(pyrrolidin-1-yl)-1-[3-({[2-(2,2,2-trifluoroethoxy)ethyl]sulfonyl}amino)phenyl]ethyl}acetamide] | 45 | 11.7 | 50 | 26.8 | 0.08 |  | 99.1 | 0.69 | 0.16 |
| COCCOCCOCCOCCOCCOc1ccc([C@@H](CN2CCCC2)N(C)C(=O)Cc2ccc(Cl)c(Cl)c2)cc1.Cl [compound 34, (S)—N-(1-(4-(2,5,8,11,14-pentaoxahexadecan-16-yloxy)phenyl)-2-(pyrrolidin-1-yl)ethyl)-2-(3,4-dichlorophenyl)-N-methylacetamide] | 26 | 16.4 | 71 | 15.4 | 13 |  | 17.6 | 107 | 24.6 |
| COCCOCCOCCOCCOCCNc1ccc([C@@H](CN2CCCC2)N(C)C(=O)Cc2ccc(Cl)c(Cl)c2)cc1 [compound 35, (S)—N-(1-(4-(2,5,8,11,14-pentaoxahexadecan-16-ylamino)phenyl)-2-(pyrrolidin-1-yl)ethyl)-2-(3,4-dichlorophenyl)-N-methylacetamide] | 44 | 15 | 65 | 26.5 | 2.59 |  | 30.6 | 24.7 | 5.7 |
| CN(C(=O)Cc1ccc(Cl)c(Cl)c1)[C@H](CN1CCCC1)c1ccc(OCCO)cc1.Cl [compound 36, (S)-2-(3,4-dichlorophenyl)-N-(1-(4-(2-hydroxyethoxy)phenyl)-2-(pyrrolidin-1-yl)ethyl)-N-methylacetamide] | 24 | 16.5 | 71 | 14.3 | 0.029 |  | 64.9 | 0.43 | 0.1 |
| COCCOCCOCCO[C@H]1CCN(C[C@H](c2ccc(OCCO)cc2)N(C)C(=O)Cc2ccc(Cl)c(Cl)c2)C1 [compound 37, 2-(3,4-Dichlorophenyl)-N-{(1S)-1-[4-(2-hydroxyethoxy)phenyl]-2-[(3S)-3-{2-[2-(2-methoxyethoxy)ethoxy]ethoxy}pyrrolidin-1-yl]ethyl}-N-methylacetamide] |  |  |  |  | 4.15 |  | 57.8 | 98.1 | 22.6 |
| CN(C(=O)Cc1ccc(Cl)c(Cl)c1)[C@H](CN1CC[C@H](O)C1)c1ccc(OCCO)cc1 [compound 38, 2-(3,4-dichlorophenyl)-N—((S)-1-(4-(2-hydroxyethoxy)phenyl)-2-((S)-3-hydroxypyrrolidin-1-yl)ethyl)-N-methylacetamide] |  |  |  |  | 0.03 |  | 87.2 | 0.49 | 0.06 |
| COCCOCCOCCOCCOCCN1CCN(C[C@H](c2ccccc2)N(C)C(=O)Cc2ccc(Cl)c(Cl)c2)CC1 [compound 39, (S)—N-(2-(4-(2,5,8,11,14-pentaoxahexadecan-16-yl)piperazin-1-yl)-1-phenylethyl)-2-(3,4-dichlorophenyl)-N-methylacetamide] |  |  |  |  | 1950 |  | 9.6 | 18500 | 4270 |
| COCCOCCOCCOCCOCCOCCOCCOC(=O)N[C@H](C(=O)Nc1cccc([C@@H](CN2CC[C@H](O)C2)N(C)C(=O)Cc2ccc(Cl)c(Cl)c2)c1)C(C)C [compound 48, N-(3-{(1S)-1-{[(3,4-Dichlorophenyl)acetyl](methyl)amino}-2-[(3S)-3-hydroxypyrrolidin-1-yl]ethyl}phenyl)-N^2-2,5,8,11,14,17,20,23-octaoxatetracosan-1-oylvalinamide] |  |  |  |  | 0.43 |  | 73.2 | 3.48 | 0.8 |
| COCCOCCOCCOCCOCCOCCOCCOC(=O)NC1(C(=O)Nc2cccc([C@@H](CN3CC[C@H](O)C3)N(C)C(=O)Cc3ccc(Cl)c(Cl)c3)c2)CC1 [compound 49, 2,5,8,11,14,17,20-Heptaoxadocosan-22-yl {1-[(3-{(1S)-1-{[(3,4dichlorophenyl)acetyl](methyl)amino}-2-[(3S)-3-hydroxypyrrolidin-1yl]ethyl}phenyl)carbamoyl]cyclopropyl}carbamate] |  |  |  |  | 0.11 |  | 78.1 | 1.61 | 0.37 |
| COCCOCC(=O)Nc1cccc([C@@H](CN2CC[C@H](O)C2)N(C)C(=O)Cc2ccc(Cl)c(Cl)c2)c1 [compound 50, 2-(3,4-dichlorophenyl)-N-[(1S)-2-[(3S)-3-hydroxypyrrolidin-1-yl]-1-(3-{[(2-methoxyethoxy)acetyl]amino}phenyl)ethyl]-N-methylacetamide] |  |  |  |  | 0.06 |  | 101 | 0.52 | 0.12 |
| CN(C(=O)C(c1ccccc1)c1ccccc1)[C@H](CN1CCCC1)c1cccc(N)c1 [compound 51, (S)—N-Methyl-N-(1-(3-aminophenyl)-2-(pyrrolidin-1-yl)ethyl)-2,2-diphenylacetamide] |  |  |  |  | 5.18 |  | 54.5 | 62.2 | 14.3 |
